Patent US20260250325A1, “Antiviral Polypeptide Membrane Fusion Inhibitor, and Preparation Method and Application Thereof” (priority 2025, published 2026)
Where a SMILES comes first, the peptide text is derived from it. The star is where a group is joined. Succinyl(4-O-cholesteryl) = CC(C)CCC[C@@H](C)[C@H]1CC[C@H]2[C@@H]3CC=C4C[C@@H](OC(=O)CCC(=O)*)CC[C@]4(C)[C@H]3CC[C@]12C

Key:
hPIV3 C243 virus strain = format: cell-based, hPIV; details: LLC-MK2 cells, hPIV3 C243, plaque reduction; read-out: EC50 against hPIV3 virus
Experimental: Rhesus monkey kidney cells (LLC-MK2) were sourced from the ATCC, with a catalog number CCL-7.1. The cells were cultured in a DMEM culture solution in which 10% fetal bovine serum, 1% non-essential amino acids, 1% sodium pyruvate, 1% L-glutamine, 100 U/ml penicillin, and 100 μg/ml streptomycin were added.
An HPIV-3 plaque experiment culture medium consisted of a DMEM culture solution added with 2% fetal bovine serum, 1% non-essential amino acids, 1% sodium pyruvate, 1% L-glutamine, 100 U/ml penicillin, and 100 μg/ml streptomycin.
The hPIV Type 3 (hPIV3 C243) was sourced from the ATCC, with a catalog number VR-93.
This study used the plaque reduction experiment to detect the in-vitro activity of the test sample against the hPIV3 C243 virus strain, and Human Anti-HPIV3 Monoclonal Antibody, clone PIA174 was an experimental system control. The test sample and a system experimental antibody were tested at 8 concentrations in duplicated wells.
The LLC-MK2 cells were digested with trypsin and then diluted to a concentration of 400,000 cells per milliliter by using a cell culture solution containing 2% serum. The diluted cells were added to a 96-well cell test board, with 100 μL per well, corresponding to 40,000 cells per well. The cells were cultured overnight in a 37° C. incubator with 5% CO2.
On the next day, the sample diluted at a fold ratio and an equal volume of virus (approximately 200 PFU per well) were well mixed and incubated at 37° C. in 5% CO2 for 1 hour. Then, the culture solution in the 96-well cell test board was discarded, the sample virus mixed solution (100 μL) was added to the 96-well cell culture plate, and incubated at 37° C. in 5% CO2 for 2 hours. After 2 h, the sample virus mixed solution was discarded, 200 μL of an experiment culture medium containing the test sample with a corresponding concentration was added, and the culture solution contained 0.8% CMC. A final concentration of DMSO in the culture solution was 0.5%. A control antibody was directly added to the experiment culture solution containing 0.8% CMC. A cell control (cells, without compound treatment or viral infection) and a viral control (cell infection virus, without compound treatment) were set. The cells were cultured for 1 day in the 37° C. incubator with 5% CO2.
The cells were fixed with 4% paraformaldehyde, and then permeabilization was performed with 0.5% Triton X-100. After the plate was washed with DPBS, a hPIV specific antibody (1:2000 dilution) was added and incubated at 37° C. for 1.5 h. Then, a secondary antibody (1:500 dilution) was added and incubated at 37° C. for 1 hour. The secondary antibody was discarded, a TrueBlue solution was added, dyeing was performed for approximately 10 minutes; and the plate was washed with running water and then air-dried, and the number of spots in each well was counted by using a microplate imaging counter.
Raw data was used for calculating the antiviral activity of the samples, and a calculation formula was shown as follows.
% inhibition rate=100−(sample value-cell control average value)/(virus control average value-cell control average value)×100
Non-linear fitting analysis was performed on the inhibition rate of the sample by using GraphPad Prism (version 10), so as to calculate an EC50 value for the sample. A fitting formula was log (inhibitor) vs. response-Variable slope (four parameters).

[1] = Cytotoxicity test in HEp-2 cells (CCK8 cell viability); format: cell-based; details: human; HEp-2 cells, CCK8, 1 day; read-out: CC50
Summary of the method: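 Compound dilutions (final DMSO 0.5%) were applied for 1 day to HEp-2 cells plated at 30,000 per well the day before. CCK8 signal gave survival relative to cell and medium controls, and a four-parameter log(inhibitor)-response fit yielded CC50.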

| Compound | EC50 (hPIV3 C243 virus strain) [nM] | CC50 at 1 day [1] [nM] |
| --- | --- | --- |
| CC[C@H](C)[C@H](NC(=O)[C@H](CCCCN)NC(=O)[C@H](CCCCN)NC(=O)[C@H](CC(C)C)NC(=O)[C@H](CO)NC(=O)[C@H](CCC(=O)O)NC(=O)[C@H](CCC(=O)O)NC(=O)[C@@H](NC(=O)[C@H](CCCCN)NC(=O)[C@H](CCCCN)NC(=O)[C@H](CC(N)=O)NC(=O)[C@@H](NC(=O)[C@H](CCC(=O)O)NC(=O)[C@H](CCC(=O)O)NC(=O)[C@@H](NC(=O)[C@H](CCCCN)NC(=O)[C@H](CCCCN)NC(=O)[C@H](CCCCN)NC(=O)[C@H](CC(=O)O)NC(=O)[C@H](Cc1ccccc1)NC(=O)[C@H](CCC(=O)O)NC(=O)[C@H](CC(=O)O)NC(C)=O)[C@@H](C)CC)C(C)C)[C@@H](C)CC)C(=O)N[C@@H](CCC(=O)O)C(=O)N[C@@H](CCC(=O)O)C(=O)N[C@@H](CO)C(=O)N[C@@H](CC(=O)O)C(=O)N[C@@H](CCCCN)C(=O)N[C@@H](CCCCN)C(=O)N[C@@H](CC(C)C)C(=O)N[C@@H](CCC(=O)O)C(=O)N[C@@H](CCC(=O)O)C(=O)N[C@H](C(=O)NCC(=O)N[C@@H](CO)C(=O)NCC(=O)N[C@@H](CO)C(=O)NCC(=O)N[C@@H](CCCCNC(=O)CCC(=O)O[C@H]1CC[C@@]2(C)C(=CC[C@H]3[C@@H]4CC[C@H]([C@H](C)CCCC(C)C)[C@@]4(C)CC[C@@H]32)C1)C(N)=O)C(C)C [Compound 15] (Ac-DEFDKKKIEEVNKKIEESLKKIEESDKKLEEVGSGSGK(Succinyl(4-O-cholesteryl))-NH2) | 20.7 | 8900 |
| CC[C@H](C)[C@H](NC(=O)[C@H](CO)NC(=O)[C@H](C)NC(=O)[C@H](CC(=O)O)NC(=O)[C@H](Cc1ccccc1)NC(=O)[C@H](CCC(=O)O)NC(=O)[C@H](CC(=O)O)NC(=O)[C@H](Cc1c[nH]c2ccccc12)NC(C)=O)C(=O)N[C@@H](CO)C(=O)N[C@@H](CCC(N)=O)C(=O)N[C@H](C(=O)N[C@@H](CC(N)=O)C(=O)N[C@@H](CCC(=O)O)C(=O)N[C@@H](CCCCN)C(=O)N[C@H](C(=O)N[C@@H](CC(N)=O)C(=O)N[C@@H](CCC(N)=O)C(=O)N[C@@H](CO)C(=O)N[C@@H](CC(C)C)C(=O)N[C@@H](CCC(=O)O)C(=O)N[C@@H](CCC(=O)O)C(=O)N[C@H](C(=O)N[C@@H](CCCNC(=N)N)C(=O)N[C@@H](CCCCN)C(=O)N[C@@H](CO)C(=O)N[C@@H](CC(=O)O)C(=O)N[C@@H](CCC(=O)O)C(=O)N[C@@H](CC(C)C)C(=O)N[C@@H](CC(C)C)C(=O)N[C@@H](Cc1c[nH]cn1)C(=O)N[C@@H](CC(N)=O)C(=O)N[C@@H](CCC(=O)O)C(=O)N[C@@H](C)C(=O)N[C@@H](C)C(=O)N[C@@H](C)C(=O)N[C@@H](CCCCN)C(=O)N[C@@H](CCCCNC(=O)CCC(=O)O[C@H]1CC[C@@]2(C)C(=CC[C@H]3[C@@H]4CC[C@H]([C@H](C)CCCC(C)C)[C@@]4(C)CC[C@@H]32)C1)C(N)=O)[C@@H](C)CC)[C@@H](C)CC)C(C)C [Compound 45] (Ac-WDEFDASISQVNEKINQSLEEIRKSDELLHNEAAAKK(Succinyl(4-O-cholesteryl))-NH2) | 36.3 | 9940 |
| CC[C@H](C)[C@H](NC(=O)[C@H](CO)NC(=O)[C@H](C)NC(=O)[C@H](CC(=O)O)NC(=O)[C@H](Cc1ccccc1)NC(C)=O)C(=O)N[C@@H](CCC(=O)O)C(=O)N[C@@H](CCC(=O)O)C(=O)N[C@H](C(=O)N[C@@H](CC(N)=O)C(=O)N[C@@H](CCCNC(=N)N)C(=O)N[C@@H](CCCNC(=N)N)C(=O)N[C@H](C(=O)N[C@@H](CCC(=O)O)C(=O)N[C@@H](CCC(=O)O)C(=O)N[C@@H](CO)C(=O)N[C@@H](CC(C)C)C(=O)N[C@@H](CCCNC(=N)N)C(=O)N[C@@H](CCCNC(=N)N)C(=O)N[C@H](C(=O)N[C@@H](CCC(=O)O)C(=O)N[C@@H](CCC(=O)O)C(=O)N[C@@H](CO)C(=O)N[C@@H](CC(=O)O)C(=O)N[C@@H](CCCNC(=N)N)C(=O)N[C@@H](CCCNC(=N)N)C(=O)N[C@@H](CC(C)C)C(=O)N[C@@H](CCC(=O)O)C(=O)N[C@@H](CCC(=O)O)C(=O)N[C@H](C(=O)N[C@@H](CC(N)=O)C(=O)N[C@@H](C)C(=O)N[C@@H](CCC(=O)O)C(=O)N[C@@H](C)C(=O)N[C@@H](C)C(=O)N[C@@H](C)C(=O)N[C@@H](CCCCN)C(=O)N[C@@H](CCCCNC(=O)CCC(=O)O[C@H]1CC[C@@]2(C)C(=CC[C@H]3[C@@H]4CC[C@H]([C@H](C)CCCC(C)C)[C@@]4(C)CC[C@@H]32)C1)C(N)=O)C(C)C)[C@@H](C)CC)[C@@H](C)CC)C(C)C [Compound 42] (Ac-FDASIEEVNRRIEESLRRIEESDRRLEEVNAEAAAKK(Succinyl(4-O-cholesteryl))-NH2) | 18.9 | 3710 |
| CC[C@H](C)[C@H](NC(=O)[C@H](CCCCN)NC(=O)[C@H](CCC(=O)O)NC(=O)[C@H](CC(C)C)NC(=O)[C@H](CO)NC(=O)[C@H](CCC(N)=O)NC(=O)[C@H](CC(N)=O)NC(=O)[C@@H](NC(=O)[C@H](CCCCN)NC(=O)[C@H](CCC(=O)O)NC(=O)[C@H](CC(N)=O)NC(=O)[C@@H](NC(=O)[C@H](CCC(N)=O)NC(=O)[C@H](CO)NC(=O)[C@H](C)NC(=O)[C@H](CC(=O)O)NC(=O)[C@H](Cc1ccccc1)NC(=O)[C@@H](NC(=O)[C@H](CC(C)C)NC(=O)[C@H](CCC(=O)O)NC(=O)[C@H](CC(=O)O)NC(=O)[C@H](Cc1ccc(O)cc1)NC(C)=O)C(C)C)C(C)C)[C@@H](C)CC)C(=O)N[C@@H](CCCNC(=N)N)C(=O)N[C@@H](CCCCN)C(=O)N[C@@H](CO)C(=O)N[C@@H](CC(=O)O)C(=O)N[C@@H](CCC(=O)O)C(=O)N[C@@H](CC(C)C)C(=O)N[C@@H](CC(C)C)C(=O)N[C@@H](Cc1c[nH]cn1)C(=O)N[C@@H](CC(N)=O)C(=O)N[C@H](C(=O)N[C@@H](CCC(=O)O)C(=O)N[C@@H](C)C(=O)N[C@@H](C)C(=O)N[C@@H](C)C(=O)N[C@@H](CCCCN)C(=O)N[C@@H](CCCCNC(=O)CCC(=O)O[C@H]1CC[C@@]2(C)C(=CC[C@H]3[C@@H]4CC[C@H]([C@H](C)CCCC(C)C)[C@@]4(C)CC[C@@H]32)C1)C(N)=O)C(C)C [Compound 30] (Ac-YDELVFDASQVNEKINQSLEKIRKSDELLHNVEAAAKK(Succinyl(4-O-cholesteryl))-NH2) | 48.2 | 6200 |
| Ac-FDEEISQVNEKINQSLAFIRKSDELLHNVNAGKSTTEAAAKK(Succinyl(4-O-cholesteryl))-NH2 [Compound 26] | 1.35 | > 100000 |
| CC[C@H](C)[C@H](NC(=O)[C@H](CCCCN)NC(=O)[C@H](CCCCN)NC(=O)[C@H](CC(C)C)NC(=O)[C@H](CO)NC(=O)[C@H](CCC(=O)O)NC(=O)[C@H](CCC(=O)O)NC(=O)[C@@H](NC(=O)[C@H](CCCCN)NC(=O)[C@H](CCCCN)NC(=O)[C@H](CC(N)=O)NC(=O)[C@@H](NC(=O)[C@H](CCC(=O)O)NC(=O)[C@H](CCC(=O)O)NC(=O)[C@@H](NC(=O)[C@H](CCCCN)NC(=O)[C@H](CCCCN)NC(=O)[C@H](CC(=O)O)NC(=O)[C@H](Cc1ccccc1)NC(=O)[C@H](CCC(=O)O)NC(=O)[C@H](CC(=O)O)NC(=O)[C@H](Cc1c[nH]c2ccccc12)NC(C)=O)[C@@H](C)CC)C(C)C)[C@@H](C)CC)C(=O)N[C@@H](CCC(=O)O)C(=O)N[C@@H](CCC(=O)O)C(=O)N[C@@H](CO)C(=O)N[C@@H](CC(=O)O)C(=O)N[C@@H](CCCCN)C(=O)N[C@@H](CCCCN)C(=O)N[C@@H](CC(C)C)C(=O)N[C@@H](CCC(=O)O)C(=O)N[C@@H](C)C(=O)N[C@@H](C)C(=O)N[C@@H](C)C(=O)N[C@@H](CCCCN)C(=O)N[C@@H](CCCCNC(=O)CCC(=O)O[C@H]1CC[C@@]2(C)C(=CC[C@H]3[C@@H]4CC[C@H]([C@H](C)CCCC(C)C)[C@@]4(C)CC[C@@H]32)C1)C(N)=O [Compound 13] (Ac-WDEFDKKIEEVNKKIEESLKKIEESDKKLEAAAKK(Succinyl(4-O-cholesteryl))-NH2) | 35.6 | 30700 |
